# Measured values: the supplement of paper PMC8967900
# Experiments:
# Test in all cases: selective drug sensitivity score (sDSS, relative to normal bone marrow) (sDSS (score)); higher = more potent and effective on the cell line relative to normal bone marrow cells
# Details in all cases: 72 h
# ALL-SIL = system: ALL-SIL
# CCRF-CEM = system: CCRF-CEM
# COG-LL-332h = system: COG-LL-332h
# COG-LL-355h = system: COG-LL-355h
# DND-41 = system: DND-41
# HPB-ALL = system: HPB-ALL
# KASUMI-10 = system: KASUMI-10
# KASUMI-2 = system: KASUMI-2
# LC4-1 = system: LC4-1
# MHH-CALL-3 = system: MHH-CALL-3
# NALL-1 = system: NALL-1
# NALM-16 = system: NALM-16
# NALM-6 = system: NALM-6
# P30-OHKUBO = system: P30-OHKUBO
# PF-382 = system: PF-382
# RCH-ACV = system: RCH-ACV
# REH = system: REH
# RPMI-8402 = system: RPMI-8402
# SEM cells = system: SEM cells
# SUP-B15 = system: SUP-B15
# 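Also: ALL cell lines in 384-well plates, five doses spanning 10,000-fold, each plate scaled between vehicle and 100 µmol/L benzalkonium chloride controls, sDSS an adapted area-under-curve metric.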
Compound,selective drug sensitivity score (ALL-SIL),selective drug sensitivity score (CCRF-CEM),selective drug sensitivity score (COG-LL-332h),selective drug sensitivity score (COG-LL-355h),selective drug sensitivity score (DND-41),selective drug sensitivity score (HPB-ALL),selective drug sensitivity score (KASUMI-10),selective drug sensitivity score (KASUMI-2),selective drug sensitivity score (LC4-1),selective drug sensitivity score (MHH-CALL-3),selective drug sensitivity score (NALL-1),selective drug sensitivity score (NALM-16),selective drug sensitivity score (NALM-6),selective drug sensitivity score (P30-OHKUBO),selective drug sensitivity score (PF-382),selective drug sensitivity score (RCH-ACV),selective drug sensitivity score (REH),selective drug sensitivity score (RPMI-8402),selective drug sensitivity score (SEM cells),selective drug sensitivity score (SUP-B15)
CC[C@@H]1[C@H](F)C(=O)N[C@@H]1COc1nccc2cc(C(N)=O)c(OC)cc12 (top concentration 10000 nM),-1.32,1.58,-0.42,1.28,-1.32,-1.32,3.68,-1.32,0.08,1.58,-1.32,-1.32,4.48,2.38,-0.42,2.58,-1.32,1.38,1.48,0.98
CONC(=O)c1ccccc1Nc1cc(Nc2cc(C)nn2C(C)C)ncc1Cl (top concentration 1000 nM),0.86,-0.94,-0.94,1.66,0.56,-0.94,-0.94,-0.94,3.36,-0.94,-0.94,-0.94,0.56,-0.94,-0.94,-0.94,-0.94,-0.94,-0.94,-0.94
CCC1(c2ccc(N)cc2)CCC(=O)NC1=O (stereo not given) [Aminoglutethimide] (top concentration 10000 nM),0,0,0,0.6,0,0.4,0,0,0,0,0,0,0,0,0,0,0.6,0,0.3,0
CC(O)c1cc(C(=O)N[C@@H](C)Cn2ccc(-c3ccc(C#N)c(Cl)c3)n2)n[nH]1 (stereo not given in full) [ODM-201] (top concentration 2500 nM),4.72,1.52,1.52,2.52,2.12,0.12,-0.28,-0.28,1.62,0.82,-0.28,-0.28,1.22,0.22,0.52,1.12,0.02,0.12,-0.28,4.22
COc1cc(N2CCN(C)CC2)ccc1Nc1nccc(-c2cn(C)c3cnccc23)n1 [AZ191] (top concentration 10000 nM),-1.52,-1.42,-0.02,-0.02,0.08,-4.72,5.38,-5.12,-2.72,-2.72,2.88,-3.72,-1.72,-0.72,-1.82,2.38,0.48,0.18,5.58,-2.72
O=C(O)CC[C@H]1CC[C@@](c2cc(F)ccc2F)(S(=O)(=O)c2ccc(Cl)cc2)CC1 [MK-0752] (top concentration 1000 nM),0,0,0,0,0.4,0,0,0,0,0,8.6,0,0,2.5,0,0.3,0,3.2,0,0
Clc1ccccc1C(c1ccccc1)(c1ccccc1)n1cccn1 [TRAM-34] (top concentration 1000 nM),-0.08,-0.08,-0.08,-0.08,-0.08,-0.08,-0.08,-0.08,-0.08,-0.08,-0.08,-0.08,-0.08,1.12,-0.08,-0.08,0.22,-0.08,-0.08,-0.08
Cc1ccc(NS(=O)(=O)c2cccc(C#N)c2)c2[nH]cc(C#N)c12 [E7820] (top concentration 50000 nM),20.2,9.12,22.1,6.22,9.82,11,4.62,5.82,11.8,7.82,6.42,1.82,19.2,17.3,10.2,23.2,13.7,17.9,19.5,8.72
COc1cc(C)c(/C=C/C(C)=C/C=C/C(C)=C/C(=O)O)c(C)c1C [Acitretin] (top concentration 10000 nM),-1.6,-1,0,2.3,-1.6,-0.1,-1.6,-1.6,-0.9,-0.2,-1.6,-1.6,-1.5,-1.6,-1.4,-1.6,-1.6,-1.6,0.4,-1.6
